Values after ≈ are worked out from the molar mass of the structure shown. Like-named read-outs stand apart in the source and are kept apart here.
Key:
Type in all cases: cell-based
[1] = test system: S. pneumoniae ATCC 25922 (NB07001); assay: MIC by broth microdilution, S. pneumoniae NB07001; conditions: Streptococcus pneumoniae, read-out: Antibacterial activity (MIC) NB07001
Procedure: (§1) Bacterial isolates were cultivated from −80° C. frozen stocks by overnight passages at 35° C. in ambient air on Mueller-Hinton agar plates (MHA, Becton Dickinson, Franklin Lakes, NB) with the exception of S. pneumoniae which was grown overnight at 35° C. in the presence of 5% CO2 on blood agar plates (tryptic soy agar with 5% sheep blood (Thermo Scientific, Waltham, Mass.) . The following quality control and wild type strains were obtained from the American Type Culture Collection (ATCC; Rockville, Md.) and are coded in the Novartis strain collection as indicated: E. coli ATCC 25922 (NB27001), E. faecalis ATCC 29212 (NB04001), S. aureus ATCC 49951 (NB01006) and S. pneumoniae ATCC […] (NB07001). […] P. aeruginosa NB52019, obtained from Queen's University (Kingston, Ontario, Canada), is the wild-type PAO1 strain.
(§2) Minimal Inhibitory Concentrations (MIC) were determined by the broth microdilution method in accordance with Clinical and Laboratories Institute (CLSI) guidelines. In brief, fresh bacterial overnight cultures were re-suspended in sterile saline, adjusted to a 0.5 McFarland turbidity standard and then diluted to yield a final inoculum of approximately 5×10^5 colony-forming units (CFU)/mL. All bacterial suspensions were prepared in cation adjusted Mueller-Hinton Broth (CAMHB; Becton Dickinson, Franklin Lakes, N.J.;) with the exception of S. pneumoniae which was prepared in CAMHB supplemented with 5% lysed horse blood (Hardy Diagnostics, Santa Maria, Calif.). Two-fold serial dilutions of compounds were prepared in 100% dimethyl sulfoxide (DMSO) at 100-fold the highest final assay concentration; the resulting dilution series of compounds were diluted 1:10 with sterile water. Ten μL of the drug dilution series in 10% DMSO was transferred to microtiter wells and 90 μL of bacterial suspension was inoculated into the wells. All inoculated microdilution trays were incubated in ambient air at 35° C. for 20 hours. Following incubation, assay plates were read in a microtiter plate reader at 600 nm and visually inspected to confirm the MIC endpoint well with the OD value. The lowest concentration of the compound that prevented visible growth was recorded as the MIC (in μg/mL).

[2] = test system: S. aureus NB01006-AVR005, gyrA (S84L), grlA (580F) and grlB (E471K); assay: microbe, parasite or virus in culture; conditions: Staphylococcus aureus, 20 h, read-out: Antibacterial activity (MIC) NB01006-AVR005
Procedure: as §1, §2

[3] = test system: P. aeruginosa NB52019, wild-type PAO1 strain; assay: MIC by broth microdilution, P. aeruginosa NB52019; conditions: Pseudomonas aeruginosa, CAMHB, 35° C., 20 hours, read-out: Antibacterial activity (MIC) NB52019
Procedure: as §1, §2

[4] = test system: S. aureus NB01080 fluoroquinolone-resistant clinical isolate; assay: MIC by broth microdilution, S. aureus NB01080; conditions: Staphylococcus aureus, CAMHB, 35° C., 20 hours, read-out: Antibacterial activity (MIC) NB01080
Procedure: as §1, §2

[5] = test system: E. coli ATCC 25922 (NB27001); assay: MIC by broth microdilution, E. coli NB27001; conditions: Escherichia coli, ATCC25922, CAMHB, 35° C., 20 hours, read-out: Antibacterial activity (MIC) NB27001
Procedure: as §1, §2

[6] = test system: E. faecalis ATCC 29212 (NB04001); assay: MIC by broth microdilution, E. faecalis NB04001; conditions: Enterococcus faecalis, ATCC29212, CAMHB, 35° C., 20 hours, read-out: Antibacterial activity (MIC) NB04001
Procedure: as §1, §2

[7] = test system: S. aureus ATCC 49951 (NB01006); assay: MIC by broth microdilution, S. aureus NB01006; conditions: Staphylococcus aureus, ATCC49951, CAMHB, 35° C., 20 hours, read-out: Antibacterial activity (MIC) NB01006
Procedure: as §1, §2

[8] = ATCC25922, S. pneumoniae, CAMHB supplemented with 5% lysed horse blood, 35° C., 20 hours

Structure (SMILES): C[C@H]1COc2c(N3CCN4C(=O)CCC4C3)c(F)cc3cc(C(=O)O)c(=O)n1c23 (stereo partly drawn) [Example 1.14, (3S)-9-fluoro-3-methyl-5-oxo-10-(6-oxohexahydropyrrolo[1,2-a]pyrazin-2(1H)-yl)-2,3-dihydro-5H-[1,4]oxazino[2,3,4-ij]quinoline-6-carboxylic acid]
- MIC ([1]; ATCC25922, 20 h): 1 to 32 µg/mL (≈ 2.49 to 79.7 µM)
- MIC [2]: 1 to 32 µg/mL (≈ 2.49 to 79.7 µM)
- MIC [3]: > 32 µg/mL
- MIC [4]: 1 to 32 µg/mL (≈ 2.49 to 79.7 µM)
- MIC [5]: > 32 µg/mL
- MIC [6]: 1 to 32 µg/mL (≈ 2.49 to 79.7 µM)
- MIC [7]: < 1 µg/mL

Structure (SMILES): COC[C@H]1COc2c(N3CC[C@@H](C4(N)CC4)C3)c(F)cc3cc(C(=O)O)c(=O)n1c23.O=CO [Example 3, (S)-10-((R)-3-(1-aminocyclopropyl)pyrrolidin-1-yl)-9-fluoro-3-(methoxymethyl)-5-oxo-2,3-dihydro-5H-[1,4]oxazino[2,3,4-ij]quinoline-6-carboxylic acid formate salt]
- MIC [1, 8]: > 32 µg/mL
- MIC [2]: > 32 µg/mL
- MIC [3]: > 32 µg/mL
- MIC [4]: > 32 µg/mL
- MIC [5]: > 32 µg/mL
- MIC [6]: > 32 µg/mL
- MIC [7]: > 32 µg/mL

Structure (SMILES): CN[C@@H](C)[C@@H]1CCN(c2c(F)cc3cc(C(=O)O)c(=O)n4c3c2OC[C@@H]4C)C1 [Example 1.36, (S)-9-fluoro-3-methyl-10-((R)-3-((S)-1-(methylamino)ethyl)pyrrolidin-1-yl)-5-oxo-2,3-dihydro-5H-[1,4]oxazino[2,3,4-ij]quinoline-6-carboxylic acid]
- MIC ([1]; ATCC25922, 20 h): < 1 µg/mL
- MIC [2]: 1 to 32 µg/mL (≈ 2.57 to 82.2 µM)
- MIC [3]: > 32 µg/mL
- MIC [4]: < 1 µg/mL
- MIC [5]: 1 to 32 µg/mL (≈ 2.57 to 82.2 µM)
- MIC [6]: < 1 µg/mL
- MIC [7]: < 1 µg/mL

Structure (SMILES): C[C@H]1CSc2c(N3CC[C@@H](C4(N)CC4)C3)c(F)cc3cc(C(=O)O)c(=O)n1c23.Cl [Example 11, (S)-10-((R)-3-(1-aminocyclopropyl)pyrrolidin-1-yl)-9-fluoro-3-methyl-5-oxo-2,3-dihydro-5H-[1,4]thiazino[2,3,4-ij]quinoline-6-carboxylic acid hydrochloride salt]
- MIC [1, 8]: < 1 µg/mL
- MIC [2]: 1 to 32 µg/mL
- MIC [3]: > 32 µg/mL
- MIC [4]: < 1 µg/mL
- MIC [5]: 1 to 32 µg/mL
- MIC [6]: < 1 µg/mL
- MIC [7]: < 1 µg/mL

Structure (SMILES): C[C@H]1COc2c(N3CC(CN)C4(CCOCC4)C3)c(F)cc3cc(C(=O)O)c(=O)n1c23 (single isomer, unassigned) [Example 1.48]
- MIC ([1]; ATCC25922, 20 h): < 1 µg/mL
- MIC [2]: 1 to 32 µg/mL (≈ 2.32 to 74.2 µM)
- MIC [3]: > 32 µg/mL
- MIC [4]: 1 to 32 µg/mL (≈ 2.32 to 74.2 µM)
- MIC [5]: > 32 µg/mL
- MIC [6]: < 1 µg/mL
- MIC [7]: < 1 µg/mL

Structure (SMILES): C[C@H]1COc2c(N3CC[C@@H]([C@@H](N)C4CC4)C3)c(F)cc3cc(C(=O)O)c(=O)n1c23 [Example 1.52, (S)-10-((R)-3-((S)-amino(cyclopropyl)methyl)pyrrolidin-1-yl)-9-fluoro-3-methyl-5-oxo-2,3-dihydro-5H-[1,4]oxazino[2,3,4-ij]quinoline-6-carboxylic acid]
- MIC ([1]; ATCC25922, 20 h): < 1 µg/mL
- MIC [2]: 1 to 32 µg/mL (≈ 2.49 to 79.7 µM)
- MIC [3]: > 32 µg/mL
- MIC [4]: < 1 µg/mL
- MIC [5]: < 1 µg/mL
- MIC [6]: < 1 µg/mL
- MIC [7]: < 1 µg/mL

Structure (SMILES): C[C@H]1COc2c(N3CCN(C)CC3)c(F)c(F)c3cc(C(=O)O)c(=O)n1c23 [Example 13.3]
- MIC [1, 8]: > 32 µg/mL
- MIC [2]: > 32 µg/mL
- MIC [3]: > 32 µg/mL
- MIC [4]: > 32 µg/mL
- MIC [5]: 1 to 32 µg/mL (≈ 2.64 to 84.4 µM)
- MIC [6]: > 32 µg/mL
- MIC [7]: 1 to 32 µg/mL (≈ 2.64 to 84.4 µM)

Structure (SMILES): C[C@H]1COc2c(N3CC4CCCC4(N)C3)c(F)cc3cc(C(=O)O)c(=O)n1c23 (stereo partly drawn) [Example 1.13, (3S)-10-(3a-aminohexahydrocyclopenta [c]pyrrol-2(1H)-yl)-9-fluoro-3-methyl-5-oxo-2,3-dihydro-5H-[1,4]oxazino[2,3,4-ij]quinoline-6-carboxylic acid]
- MIC ([1]; ATCC25922, 20 h): 1 to 32 µg/mL (≈ 2.58 to 82.6 µM)
- MIC [2]: > 32 µg/mL
- MIC [3]: > 32 µg/mL
- MIC [4]: > 32 µg/mL
- MIC [5]: 1 to 32 µg/mL (≈ 2.58 to 82.6 µM)
- MIC [6]: 1 to 32 µg/mL (≈ 2.58 to 82.6 µM)
- MIC [7]: 1 to 32 µg/mL (≈ 2.58 to 82.6 µM)

Structure (SMILES): CC1CCc2c(N3CC[C@@H](C4(N)CC4)C3)c(F)cc3cc(C(=O)O)c(=O)n1c23.O=C(O)C(F)(F)F (single isomer, unassigned) [Example 8]
- MIC [1, 8]: < 1 µg/mL
- MIC [2]: < 1 µg/mL
- MIC [3]: 1 to 32 µg/mL
- MIC [4]: < 1 µg/mL
- MIC [5]: 1 to 32 µg/mL
- MIC [6]: < 1 µg/mL
- MIC [7]: < 1 µg/mL

— patent US20180318311A1, “TRICYCLIC 2-QUINOLINONES AS ANTIBACTERIALS” (priority 2017, published 2018)
